Data published in patent US20250264459A1, “IN VITRO ASSAY TO PREDICT CARDIOTOXICITY” (Stemina Biomarker Discovery, Inc., priority 2018, published 2025).
Read-outs that look alike come from different tables or passages of the source. Where a SMILES comes first, the peptide text is derived from it.

Tests used:
[1] = cited from earlier work
[2] = system: human iPSC-CM (iCell Cardiomyocytes2); test: Spent-media metabolomics (LC-MS) cardiotoxicity prediction models, blinded test set; conditions: for Global Tox Model Prediction: cardiotoxic vs non-cardiotoxic, at the Exposure (μM) listed per compound in Table 3, model from confirmed metabolites and viability; for Functional Model Prediction: functional vs general/structural cardiotoxicants, at the Exposure (μM) listed per compound in Table 3
[3] = system: human iPSC-CM (iCell Cardiomyocytes); test: Dose-response cell viability (CellTiter-Fluor) in iPSC-derived cardiomyocytes, maximum acceptable viability exposure; type: cell-based; conditions: human
Procedure: Metabolomic data was acquired to identify non-cytotoxic exposure levels and identify biomarkers of cardiotoxicity from a dose-response experiment using spent medium of iPSC-CM treated with 53 of the compounds in the training set. Briefly, human iPSC-CM (iCell® Cardiomyocytes, cat #R1007, Cellular Dynamics International) were exposed to eight concentrations of each training set compound. Spent media was collected for LC-MS analysis and cell viability was assessed with the CellTiter-Fluor Cell Viability Assay (Promega). Spent media samples were prepared and analyzed using the methods developed in Specific Aim 1. The spent media samples from iPSC-CM treated with 10 representative cardiotoxic and non-cardiotoxic compounds were analyzed with all four LC-MS methods to rank biological significant secretome features by predictive capacity. […]
The goal of the concentration-response phase of biomarker identification was to identify non-cytotoxic exposure levels that change iPSC-CM metabolism. The method included modeling feature response, calculating maximum acceptable viability (MAVE), determining response at Cmax, and MAVE, reviewing the top 4 responding features, and selecting the highest tested exposure with 90% viability.

| Compound | Cmax Total ([1]; therapeutic total Cmax) [nM] | Global Tox Model Prediction [2] | Functional Model Prediction [2] | MAVE (Maximum Acceptable Viability Exposure) [3] [µM] | Cmax Total ([1]; in vivo) [nM] |
| --- | --- | --- | --- | --- | --- |
| Cc1cn(-c2cc(NC(=O)c3ccc(C)c(Nc4nccc(-c5cccnc5)n4)c3)cc(C(F)(F)F)c2)cn1 [Nilotinib] | 3000 | + | − |  |  |
| CC(=O)Oc1ccccc1C(=O)O [Acetylsalicylic Acid] | 10000 | − | − |  |  |
| CN(CCOc1ccc(CC2SC(=O)NC2=O)cc1)c1ccccn1 (stereo not shown) [Rosiglitazone] |  |  | − |  |  |
| OC[C@H]1O[C@@](CO)(O[C@H]2O[C@H](CO)[C@@H](O)[C@H](O)[C@H]2O)[C@@H](O)[C@@H]1O [Sucrose] | 1800 | − | − |  |  |
| CC(C)NCC(O)c1ccc(NS(C)(=O)=O)cc1 (stereo not shown) [Sotalol] | 15000 | + | + |  |  |
| OC[C@@H](O)[C@H](O)[C@@H](O)CO [Xylitol] | 500 | − | − |  |  |
| CCCc1nn(C)c2c(=O)[nH]c(-c3cc(S(=O)(=O)N4CCN(C)CC4)ccc3OCC)nc12 [Sildenafil] |  | − | − |  |  |
| O=C(O)COCCN1CCN(C(c2ccccc2)c2ccc(Cl)cc2)CC1 (stereo not shown) [Cetirizine] |  |  | − |  |  |
| CCOC(=O)N1CCC(=C2c3ccc(Cl)cc3CCc3cccnc32)CC1 [Loratadine] |  |  | − |  |  |
| O=C(O)CCCC[C@@H]1SC[C@@H]2NC(=O)N[C@@H]21 [Biotin] | 10 |  |  | 100 |  |
| Nc1nc2c(ncn2COCCO)c(=O)[nH]1 [Acyclovir] | 6700 |  |  | 100 |  |
| CC1(C)S[C@@H]2[C@H](NC(=O)[C@H](N)c3ccc(O)cc3)C(=O)N2[C@H]1C(=O)O [Amoxicillin] | 17000 |  |  | 100 |  |
| CS(=O)(=O)OCCCCOS(C)(=O)=O [Busulfan] | 50000 | + | − |  |  |
| CN(CCOc1ccc(NS(C)(=O)=O)cc1)CCc1ccc(NS(C)(=O)=O)cc1 [Dofetilide] | 8 |  |  | 100 |  |
| CC(C)COCC(CN(Cc1ccccc1)c1ccccc1)N1CCCC1 (stereo not shown) [Bepridil] | 3300 | + | + |  |  |
| COc1ccc(CCN2CCC(Nc3nc4ccccc4n3Cc3ccc(F)cc3)CC2)cc1 [Astemizole] | 8 |  |  | 3 |  |
| CCCOC(=O)c1cc(O)c(O)c(O)c1 [Propyl Gallate] | 3000 |  |  | 30 |  |
| CC[C@H](OC(C)=O)C(C[C@H](C)N(C)C)(c1ccccc1)c1ccccc1 [Levomethadyl Acetate] |  | + | + |  | 600 |
| CCCCCNC(=N)N/N=C/c1c[nH]c2ccc(OC)cc12 [Tegaserod] | 80 |  |  | 3 |  |
| COC(=O)c1ccc(O)cc1 [Methylparaben] | 230 |  |  | 100 |  |
| CS(=O)(=O)c1ccc(C2=C(c3ccccc3)C(=O)OC2)cc1 [Rofecoxib] | 1700 |  |  | 100 |  |
| COC(=O)[C@H](Cc1ccccc1)NC(=O)[C@@H](N)CC(=O)O [Aspartame] (H-Asp-Phe-OMe) | 1000 |  |  | 100 |  |
